Tested on: LPS-induced acute lung injury mice
Experiment: Intratracheal administration in LPS-induced acute lung injury model; cells counted in bronchoalveolar lavage fluid
Type: in vivo, mice (male BALB/c)
Details: non-polymer-incorporated solution in saline (50 μL), intratracheal, 0.2, 2 or 20 μg/body; n=8

Question: With `O=C([O-])C[C@H](O)C[C@H](O)/C=C/c1c(C2CC2)nc2ccccc2c1-c1ccc(F)cc1.O=C([O-])C[C@H](O)C[C@H](O)/C=C/c1c(C2CC2)nc2ccccc2c1-c1ccc(F)cc1.[Ca+2]` [pitavastatin calcium] as the molecule, how does the “Effect of inhibiting migration of inflammatory cells (result in words)” value read?
Answer: Its value is “did not exhibit the effect of inhibiting migration of inflammatory cells”.

— patent US20100086615A1, “AGENT FOR TREATMENT OF PULMONARY DISEASE” (KYUSHU UNIVERSITY, NATIONAL UNIVERSITY CORPORATION, priority 2007, published 2010)
